Experiment [1] has as its system Human breast cancer cell line T47D. The experiment is described as follows: Cell based caspase-3 activity assay: potentiation of MMS induced apoptosis. Conditions: T47D cells, 11.1 μg/ml MMS, 24 hours, intracellular caspase-3 activity, read-out: EC50 (nM), potentiation of the apoptosis inducing activity of MMS. The text has this:
Determination of the synergistic potentiation effect of 1-(3-(4-(pyrimidin-2-yl)piperazine-1-carbonyl)benzyl)quinazoline-2,4(1H,3H)-dione and analogs on MMS induced apoptosis using a cell based caspase-3 activity assay
Human breast cancer cell line T47D was used to determine the potentiation effect of PARP inhibitors on the apoptosis inducing activity of DNA damaging anticancer drugs such as MMS. Intracellular caspase-3 activity was used to measure cell apoptosis. The dose response effect of MMS to induce intracellular caspase activity was carefully titrated and the concentration that only induces a minimal level of caspase activity was used to test the potentiation effect of PARP inhibitors. Briefly, T47D cells were grown in DMEM/F12 cell culture medium (Hyclone) supplemented with 0.2 U/ml insulin (Genview) and 10% FBS (Hyclone). A day before experiment, 20000 of T47D cells were seeded to each well of a 96-well cell culture plate and maintained at 37° C. and 5% CO2 in a cell culture incubator overnight. On the day of experiment, cell culture medium was removed. One hundred and eighty μl of fresh medium containing 11.1 μg/ml MMS was added to each well and followed by 20 μl medium containing 10 folds of the concentrations of experimental drugs or reference compounds (ADZ2281 and ABT-888). The serial dilutions of the compounds to be tested and the reference compounds were made in a 1:3 and 1:10 fashion in DMSO. The 10-fold compound solutions were made by mixing 10 μl DMSO serial dilution solutions with 90 μl fresh growth medium. Twenty four hours later, the cells in the 96-well plates were centrifuged at 1000 g for 5 min and the supernatants were removed. Fifty μl lysis buffer (10 mM Tris, pH7.5, 0.1M NaCl, 1 mM EDTA, 0.01% Triton X-100) was added to each well and the plates were shaked horizontally for 30 min at 4° C. After centrifugation at 1000 g at 4° C. for 10 min, 20 μl of supernatant was transferred from each well to a corresponding well in a 384-well black plate. Twenty μl of buffer (20 mM PIPES, pH7.4, 4 mM EDTA and 0.2% CHAPS) containing 20 μM fluorescent caspase-3 substrate ((Ac-DEVD)2-R110, AnaSpec Cat #60304-5) was added to each well afterwards. The plates were shaked to uniformly mix the wells and incubated at 37° C. for 3 h. The fluorescence intensity was measured using the following wavelength: ex: 496 nm, em: 520 nm using a fluorescence plate reader (Varioskan Flash, Thermo Fisher Scientific). The caspase-3 activity induced by the compounds was expressed as a relative fluorescence unit (RFU). The obtained fluorescence readings were analyzed using a commercial graphic software (GraphPad Prism 5) and plotted against the Log value of the compound concentrations. The EC50 values were obtained by fitting the data points with the equation of Y (fluorescence reading)=minimal fluorescence reading+(maximal fluorescence reading−minimal fluorescence reading)/(1+10^(Log EC50−Log C)), where C is the concentration of the testing compound.
The synergistic potentiation effect of compounds on MMS induced apoptosis in T47D cells is expressed as EC50 values and listed in Table 2.

The subject of experiment [2] is SW620 human colorectal cancer cells. The experiment is described as follows: MTT based cell viability assay: potentiation of the growth inhibiting activity of MMS.
Experimental: Briefly, SW620 human colorectal cancer cells were used to measure the cell growth inhibiting activity of DNA alkylating anticancer drug MMS. […] SW620 cells were grown and maintained in RPMI1640 (Gibco) medium supplemented with 10% FBS (Hyclone). In the first day of experiment, 4000 cells were seeded to each well of a 96-well cell culture plate and incubated at 37° C. and 5% CO2 in a cell culture incubator overnight. In the next day, the cell culture medium was removed. […] The serial dilutions of the reference compounds and the compounds to be tested were made with a 1:3 and 1:10 fashion in DMSO. The 10-fold concentrated solutions of these compounds were made by mixing 10 μl of the serial dilutions in DMSO with 90 μl fresh medium. The final concentration of DMSO in the medium was 1%. The cells were incubated at 37° C. in 5% CO2 cell culture incubator for additional 5 days (120 hours). Afterwards, the 96-well cell culture plate was taken out and 20 μl of MTT solution was added to each well and incubated at 37° C. for 4 h. The medium was removed and 100 μl DMSO was added to each well. The 96-well cell culture plates were shaked adequately for 10 min and read in a Varioskan Flash plate reader (Thermo Fisher Scientific) at 520 and 690 nm. The data were analyzed by Prism 5 software (GraphPad). The obtained 520 nm absorbance readings subtracting corresponding 690 nm reading were analyzed and plotted against the Log scale of the compound concentrations.
Where [3] appears, read: Homo sapiens, SW-620, 120 h, read-out: IC50 (nM), potentiation of the growth inhibiting activity of MMS, SW620 cells, 1.7 μg/ml MMS, 5 days (120 hours), MTT.
Setting [4] is: read-out: IC50 (nM), potentiation of the growth inhibiting activity of MMS, SW620 cells, 1.7 μg/ml MMS, 5 days (120 hours), MTT.

Counter-ions that a name gives are not always drawn. Like-named read-outs stand apart in the source and are kept apart here.

As for `O=C(c1cc(Cn2c(=O)[nH]c(=O)c3c(Cl)cccc32)ccc1F)N1CCN(c2ccccn2)CC1` [Example 106, 5-Chloro-1-(4-fluoro-3-(4-(pyridin-2-yl)piperazine-1-carbonyl)benzyl)quinazoline-2,4(1H,3H)-dione], in experiment [1] (Homo sapiens, T47D, 24 h), the EC50 is 217 nM. In experiment [2] (setting [3]), the IC50 came to 105 nM.

Consider `O=C(c1cccc(Cn2c(=O)[nH]c(=O)c3cc(Cl)ccc32)c1)N1CCN(c2ccccn2)CC1` [Example 114, 6-Chloro-1-(3-(4-(pyridin-2-yl)piperazine-1-carbonyl)benzyl)quinazoline-2,4(1H,3H)-dione], for which the EC50 in experiment [1] (Homo sapiens, T47D, 24 h) was determined as 19 nM. Also, in experiment [2] (setting [3]), the IC50 was found to be 51 nM.

Turning to `O=C(c1cc(Cn2c(=O)[nH]c(=O)c3c(F)cccc32)ccc1Br)N1CCN(c2ncccn2)CC1` [Example 215, 1-(4-Bromo-3-(4-(pyrimidin-2-yl)piperazine-1-carbonyl)benzyl)-5-fluoroquinazoline-2,4(1H,3H)-dione], the EC50 in experiment [1] (Homo sapiens, T47D, 24 h) stood at 743 nM. Also, the IC50 in experiment [2] (setting [3]) was 1390 nM.

Regarding `O=C(c1cc(Cn2c(=O)[nH]c(=O)c3ccccc32)ccc1F)N1CCN(c2ncccn2)CC1` [Example 192, 1-(4-Fluoro-3-(4-(pyrimidin-2-yl)piperazine-1-carbonyl)benzyl)quinazoline-2,4(1H,3H)-dione hydrochloride], in experiment [1] (hydrochloride), the EC50 is 3.1 nM. For the same compound, in experiment [2] (read-out: IC50 (nM), potentiation of the growth inhibiting activity of MMS, SW620 cells, 1.7 μg/ml MMS, 5 days (120 hours), MTT, hydrochloride), the IC50 amounted to 79 nM.

Take `O=C(c1cccc(Cn2c(=O)[nH]c(=O)c3c(Cl)cccc32)c1)N1CCN(C(=O)C2CCCCC2)CC1` [Example 102, 5-Chloro-1-(3-(4-(cyclohexylcarbonyl)piperazine-1-carbonyl)benzyl)quinazoline-2,4(1H,3H)-dione]: the 50% effective concentration (EC50) in experiment [1] (Homo sapiens, T47D, 24 h) was 26 nM. In addition, in experiment [2] (setting [3]), the IC50 was determined as 87 nM.

Turning to `O=C(c1cc(Cn2c(=O)[nH]c(=O)c3c(F)cccc32)ccc1[N+](=O)[O-])N1CCN(c2ncccn2)CC1` [Example 211, 5-Fluoro-1-(4-nitro-3-(4-(pyrimidin-2-yl)piperazine-1-carbonyl)benzyl)quinazoline-2,4(1H,3H)-dione], the EC50 in experiment [1] (Homo sapiens, T47D, 24 h) came to 166 nM. Besides, in experiment [2] (setting [3]), the IC50 was determined as 145 nM.

Turning to `O=C(c1cccc(Cn2c(=O)[nH]c(=O)c3cc(Cl)ccc32)c1)N1CCN(C(=O)c2cccs2)CC1` [Example 115, 6-Chloro-1-(3-(4-(thiophene-2-carbonyl)piperazine-1-carbonyl)benzyl)quinazoline-2,4(1H,3H)-dione], the EC50 in experiment [1] (Homo sapiens, T47D, 24 h) was determined as 23 nM. Besides, the IC50 in experiment [2] (setting [3]) came out at 19 nM.

For the compound `C[C@]1(c2nc3c(C(N)=O)cccc3[nH]2)CCCN1` [ABT-888, reference compound], in experiment [1], the EC50 was 3490 nM. Moreover, the IC50 in experiment [2] (setting [4]) was 2640 nM.

For the compound `O=C(c1cccc(Cn2c(=O)[nH]c3ccccc3c2=O)c1)N1CCN(c2ncccn2)CC1` [Example 228, 3-(3-(4-(Pyrimidin-2-yl)piperazine-1-carbonyl)benzyl)quinazoline-2,4(1H,3H)-dione], the concentration giving a half-maximal response (EC50) in experiment [1] (Homo sapiens, T47D, 24 h) was more than 10000 nM. For the same compound, in experiment [2] (setting [3]), the IC50 is more than 10000 nM.

Consider `Cc1ccc2c(c1)c(=O)[nH]c(=O)n2Cc1ccc(F)c(C(=O)N2CCN(C(=O)C3CCCCC3)CC2)c1` [Example 84, 1-(3-(4-(Cyclohexylcarbonyl)piperazine-1-carbonyl)-4-fluorobenzyl)-6-methylquinazoline-2,4(1H,3H)-dione], for which the EC50 in experiment [1] (Homo sapiens, T47D, 24 h) is 18 nM. Moreover, the IC50 in experiment [2] (setting [3]) came out at 52 nM.

As to `O=C(c1cc(Cn2c(=O)[nH]c(=O)c3ccccc32)ccc1Cl)N1CCN(C(=O)C2CCCCC2)CC1` [Example 66, 1-(4-Chloro-3-(4-(cyclohexylcarbonyl)piperazine-1-carbonyl)benzyl)quinazoline-2,4(1H,3H)-dione], the EC50 in experiment [1] (Homo sapiens, T47D, 24 h) stood at 604 nM. Besides, the IC50 in experiment [2] (setting [3]) is 991 nM.

`O=C(c1cccc(Cn2c(=O)[nH]c(=O)c3ccc(Cl)cc32)c1)N1CCN(C(=O)C2CCCC2)CC1` [Example 162, 7-Chloro-1-(3-(4-(cyclopentylcarbonyl)piperazine-1-carbonyl)benzyl)quinazoline-2,4(1H,3H)-dione]: the 50% effective concentration (EC50) in experiment [1] (Homo sapiens, T47D, 24 h) worked out at 495 nM. In addition, the IC50 in experiment [2] (setting [3]) came to 1190 nM.

With `O=C(c1cccnc1)N1CCN(C(=O)c2cccc(Cn3c(=O)[nH]c(=O)c4ccccc43)c2)CC1` [Example 36, 1-(3-(4-(Pyridine-3-carbonyl)piperazine-1-carbonyl)benzyl)quinazoline-2,4(1H,3H)-dione], in experiment [1] (Homo sapiens, T47D, 24 h), the EC50 is more than 10000 nM. In addition, the IC50 in experiment [2] (setting [3]) was more than 10000 nM.

For `O=C(c1ccccc1)N1CCN(C(=O)c2cc(Cn3c(=O)[nH]c(=O)c4cc(F)ccc43)ccc2F)CC1` [Example 181, 1-(3-(4-Benzoylpiperazine-1-carbonyl)-4-fluorobenzyl)-6-fluoroquinazoline-2,4(1H,3H)-dione], the EC50 in experiment [1] (Homo sapiens, T47D, 24 h) was determined as 2.4 nM. Besides, the IC50 in experiment [2] (setting [3]) was determined as 4.9 nM.

“1-(3-(4-Phenylpiperidine-1-carbonyl)benzyl)quinazoline-2,4(1H,3H)-dione [Example 18]”: in experiment [1], the EC50 was more than 10000 nM. Moreover, the IC50 in experiment [2] (setting [4]) was more than 10000 nM.

Take `O=C(c1ccccc1Cn1c(=O)[nH]c(=O)c2ccccc21)N1CCN(c2ncccn2)CC1` [Example 220, 1-(2-(4-(Pyrimidin-2-yl)piperazine-1-carbonyl)benzyl)quinazoline-2,4(1H,3H)-dione]: the EC50 in experiment [1] (Homo sapiens, T47D, 24 h) was more than 10000 nM. The IC50 in experiment [2] (setting [3]) was more than 10000 nM.

As for `O=C(c1cccc(Cn2c(=O)[nH]c(=O)c3ccccc32)c1)N1CCN(C2CCCCC2)CC1` [Example 5, 1-(3-(4-Cyclohexylpiperazine-1-carbonyl)benzyl)quinazoline-2,4(1H,3H)-dione], the EC50 in experiment [1] (Homo sapiens, T47D, 24 h) amounted to 450 nM. The IC50 in experiment [2] (setting [3]) turned out to be 5360 nM.

As to `O=C(c1ccc(F)c(Cn2c(=O)[nH]c(=O)c3cc(Cl)ccc32)c1)N1CCN(c2ccccn2)CC1` [Example 174, 6-Chloro-1-(6-fluoro-3-(4-(pyridin-2-yl)piperazine-1-carbonyl)benzyl)quinazoline-2,4(1H,3H)-dione], the EC50 in experiment [1] (Homo sapiens, T47D, 24 h) worked out at 37 nM. Further, the IC50 in experiment [2] (setting [3]) came out at 94 nM.

Turning to `O=C(O)c1cc(Cn2c(=O)[nH]c(=O)c3ccccc32)ccc1F` [Example 22, 1-(3-Carboxy-4-fluorobenzyl)quinazoline-2,4(1H,3H)-dione], the EC50 in experiment [1] (Homo sapiens, T47D, 24 h) was more than 10000 nM. Further, the IC50 in experiment [2] (setting [3]) is more than 10000 nM.

Turning to `O=C(c1cc(Cn2c(=O)[nH]c(=O)c3c(F)cccc32)ccc1F)N1CCN(C(=O)C2CCC2)CC1` [Example 166, 1-(3-(4-(Cyclobutylcarbonyl)piperazine-1-carbonyl)-4-fluorobenzyl)-5-fluoroquinazoline-2,4(1H,3H)-dione], the EC50 in experiment [1] (Homo sapiens, T47D, 24 h) was 1.6 nM. In addition, the IC50 in experiment [2] (setting [3]) was determined as 4 nM.

On to `O=C(c1cccc(Cn2c(=O)[nH]c(=O)c3ccccc32)c1)N1CCN(c2nccs2)CC1` [Example 72, 1-(3-(4-(Thiazol-2-yl)piperazine-1-carbonyl)benzyl)quinazoline-2,4(1H,3H)-dione], for which the 50% effective concentration (EC50) in experiment [1] (Homo sapiens, T47D, 24 h) is 41 nM. Besides, the IC50 in experiment [2] (setting [3]) was determined as 80 nM.

`O=C(c1cccc(Cn2c(=O)[nH]c(=O)c3ccccc32)n1)N1CCN(c2ncccn2)CC1` [Example 71, 1-((2-(4-(Pyrimidin-2-yl)piperazine-1-carbonyl)pyridin-6-yl)methyl)quinazoline-2,4(1H,3H)-dione]: the EC50 in experiment [1] (Homo sapiens, T47D, 24 h) was determined as 67 nM. For the same compound, in experiment [2] (setting [3]), the IC50 was found to be 70 nM.

As to `O=C(c1ccc(F)cc1)N1CCN(C(=O)c2cccc(Cn3c(=O)[nH]c(=O)c4ccccc43)c2)CC1` [Example 9, 1-(3-(4-(4-Fluorobenzoyl)piperazine-1-carbonyl)benzyl)quinazoline-2,4(1H,3H)-dione], in experiment [1] (Homo sapiens, T47D, 24 h), the EC50 was 426 nM. Besides, in experiment [2] (setting [3]), the IC50 was 500 nM.

A word on the EC50: it is the concentration that produces a half-maximal response.

Values taken from patent US9926304B2, “1-(arylmethyl)quinazoline-2,4(1H,3H)-diones as PARP inhibitors and the use thereof” (Impact Therapeutics, Inc., priority 2011, dated 2018).
